Results from paper PMC9131456, “Structure-Based Discovery of Lipoteichoic Acid Synthase Inhibitors” (Journal of Chemical Information and Modeling, 2022).

Experiments:
HEK293 cells = experiment: LDH release cytotoxicity assay; format: cell-based, human; details: 200 μM compound, 24 h
Description: The human embryonic kidney (HEK293) cells were maintained in Dulbecco’s modified Eagle medium (DMEM) supplemented with 10% fetal bovine serum and 100 units/mL of penicillin–streptomycin. For the cell viability assays, cells were seeded onto 96-well plates at a density of 4 × 10^4 cells/well and grown at 37 °C at 5% CO2. After incubating the cells for 24 h, the culture media were replaced with fresh DMEM supplemented with 200 μM of the compounds 1771, compound 4, compound 8, and compound 9 and incubated further for an additional 24 h. The cytotoxicity of these drugs was measured using the LDH Cytotoxicity Assay Kit according to the manufacturer’s instruction (Thermo Scientific). The absorbance at 490 nm was measured with a CLARIOstar microplate reader (BMG Labtech), and the reference wavelength was set at 630 nm.

[1] = tested on: LTA production in S. aureus (strain RN4220); experiment: Western blot (immunoblotting) of LTA in S. aureus cell extracts; format: cell-based; details: for LTA production: Western blot of S. aureus cell extracts, 10 μM in Figure S14, 100 μM for compound 8
Description: The procedures of LTA detection using Western Blot had previously been reported by Gründling et al.[52] To determine the effect of the compounds on LTA production, 10 mL cultures of S. aureus (strain RN4220) in MH2 broth were incubated in an orbital shaker at 37 °C with either the compounds or DMSO. When the control cultures had reached an OD600nm ∼ 1, the bacteria were pelleted and the OD600nm of the cultures normalized by resuspension with the appropriate amount of MH2 broth. Subsequently, 1 mL from each cultures was mixed with 0.5 mL of 0.1 mm glass beads, and the bacteria were lyzed by vortexing at 4 °C for 45 min. After lysis, glass beads were removed by centrifugation at 200g, and the supernatants were transferred to a new tube. The membrane-associated LTA from each culture were pelleted by an additional centrifugation step of the supernatant at 16,000g for 15 min before resuspension in 30 μL of 2× SDS. The samples were boiled at 80 °C for 20 min, and the solubilized fractions were loaded onto 15% SDS-polyacrylamide gels prior to electrophoresis at 120 V for 1.5 h. The LTA on the gels were electrotransferred onto FL-immobilon PVDF membranes at 25 V for another 1.5 h. After the electrotransfer, the membranes were blocked with 5% skimmed milk for 1 h and incubated with the antimouse LTA antibody (clone G43J, Thermo Fisher Scientific; 1:1000 dilution) overnight at 4 °C. After washing, the membranes were incubated with antimouse IRDye 680RD (1:10,000 dilution) for 1 h, washed, and visualized using the Odyssey CLx Imaging System.

wild-type eLtaS = biological target: T1, wild-type eLtaS (Staphylococcus aureus, UniProt Q2G093); experiment: Isothermal titration calorimetry, wild-type eLtaS; format: binding, S. aureus; details: ITC; for Kd: 25 °C, wild-type eLtaS titrated into 10 μM inhibitor
T1 construct: LtaS is a transmembrane protein with a large extracellular catalytic domain (denoted as eLtaS); His-tag; made in house; host or cells: E. coli (Rosetta; plasmid pProEX-eLtaS from strain ANG571)
T1 sequence (Q2G093 218-646): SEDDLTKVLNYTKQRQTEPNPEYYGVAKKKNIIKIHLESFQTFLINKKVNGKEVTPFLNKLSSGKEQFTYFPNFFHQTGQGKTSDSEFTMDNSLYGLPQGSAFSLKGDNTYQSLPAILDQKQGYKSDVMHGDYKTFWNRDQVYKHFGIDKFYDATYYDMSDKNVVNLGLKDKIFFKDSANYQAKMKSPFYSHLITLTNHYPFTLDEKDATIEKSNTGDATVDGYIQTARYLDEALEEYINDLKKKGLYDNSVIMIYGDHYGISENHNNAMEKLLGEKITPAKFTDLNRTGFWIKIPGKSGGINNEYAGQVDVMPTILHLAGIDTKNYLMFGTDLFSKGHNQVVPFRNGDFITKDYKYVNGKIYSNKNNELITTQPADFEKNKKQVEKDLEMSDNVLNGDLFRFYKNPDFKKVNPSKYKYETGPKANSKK
Description: Each of the eLtaS proteins were purified from 6 L of E. coli cultures that were grown with aeration in LB medium supplemented with 200 μg/mL of carbenicillin and 34 μg/mL of chloramphenicol at 37 °C. When the cultures reached an OD600nm of about 0.6, protein expression was induced with 1 mM IPTG final concentration at 21 °C overnight. Later, the bacteria were harvested by centrifugation at 11,899g, and the bacterial pellets were resuspended with lysis buffer (50 mM Trizma-HCl, pH 7.5, 300 mM NaCl, 5% glycerol, 10 mM imidazole, 5 mM β-mercaptoethanol). The bacterial pellets were lyzed by three passages through a high-pressure emulsifier, and the lysates were centrifuged at 47,596g for 30 min at 4 °C. The resulting supernatants containing the His-tagged eLtaS proteins were filtered with a 0.22 μm filter before being loaded onto a 5 mL Ni-NTA column using an ÄKTApure protein purification system. The bound proteins were subsequently washed with lysis buffer, eluted using the elution buffer (50 mM Trizma-HCl, pH 7.5, 300 mM NaCl, 5% glycerol, and 300 mM imidazole), and dialyzed twice using the dialysis buffer [25 mM Trizma-HCl, pH 7.5, 100 mM NaCl, 10% glycerol, 1 mM ethylenediaminetetraacetic acid (EDTA)]. After dialysis, protein purity was confirmed to be >90% using SDS-PAGE. Proteins were then concentrated, snap-frozen in liquid N2, and stored at −80 °C prior to usage. All four eLtaS proteins were subjected to circular dichroism analysis, and their exact masses were determined using MS.
The thawed eLtaS proteins were dialyzed using D-Tube Dialyzer Mini (EMD Millipore) in 20 mM Trizma-HCl pH 7.5, 100 mM NaCl with Chelex 100 (Sigma-Aldrich) for 1.5 h twice on the same day prior to the ITC experiments. After dialysis, the eLtaS proteins were centrifuged at 20,000g at 10 °C for 10 min. The supernatants were transferred to new microcentrifuge tubes and diluted to 100 μM using the same buffer as above with an addition of 0.1% (v/v) DMSO. Meanwhile, the eLtaS inhibitors were diluted to 10 μM using the same buffer and maintaining 0.1% (v/v) DMSO. The eLtaS proteins were titrated into the main cell containing the inhibitors using a VP-ITC at 25 °C. The injection parameters were set as follows: a reference power of 15 μcal/s, an initial injection of 3 μL over a duration of 3.6 s, and then subsequent injections of 10 μL over a duration of 12 s. All injections were spaced with 240 s with a filter period of 2 s. Data were first analyzed in NITPIC[69] for baseline calculations and then fit for thermodynamic parameters using the OneSite model in Origin 7.0 software.

[2] = tested on: S. aureus (strain Newman); experiment: Antimicrobial microdilution broth assay (growth inhibition); format: cell-based; details: for IC50: S. aureus strain Newman growth, OD600nm after 20 h at 37 °C, MH2 broth, mean ± s.e.m., n = 3
Description: All the compounds tested in this study were dissolved in dimethyl sulfoxide (DMSO) at an initial stock concentration of 20 mM and stored at −20 °C. These compounds were tested for their antimicrobial activity using the microdilution broth method[66] following the protocol described by Richter et al.[30] Briefly, overnight cultures of S. aureus (strain Newman) grown at 37 °C in cation-adjusted Mueller Hinton II (MH2) broth were adjusted to an OD600nm of 0.6 before back-diluted with a factor of 1:2000 with the same broth. After that, 200 μL of the diluted bacterial culture were dispensed into each well of 96-well plates supplemented with the compounds to the desired concentrations. The plates were then sealed with a moisture membrane barrier and incubated statically for 20 h at 37 °C. After that, the OD600nm values of the cultures in each well were measured using a CLARIOstar microplate reader (BMG Labtech). The procedures for the potentiation assays were by large the same as described above with some variations. In such assays, MRSA strain COL was grown in the 96-well plates supplemented with different concentrations of compound 9 with methicillin, carbenicillin, or polymyxin B in a checkerboard format. Their synergistic effects were quantified by OD600nm measurements using a CLARIOstar microplate reader (BMG Labtech).

[3] = Staphylococcus aureus, NEWMAN, 20 h

Row | Compound | cytotoxicity (LDH release) (HEK293 cells) | LTA production [1] | LTA production ([1]; listed as compound 4) | Kd (wild-type eLtaS) [µM] | binding enthalpy (wild-type eLtaS; wild-type eLtaS, compared with 1771) | IC50 [2] [µM] | IC50 [2, 3] [µM] | improvement in antimicrobial potency ([2]; compound 4 compared with 1771, S. aureus growth) [fold] | electrophoretic mobility of the LTA extracted from treated S. aureus ([1]; Western blot, 100 μM compound) | decrease in antimicrobial potency compared with compound 8 ([2]; S. aureus growth) [fold]
1 | O=C(COC(=O)c1cn(-c2ccccc2)nc1-c1cccs1)Nc1nnc(-c2ccccc2)o1 [Compound 4] | non-cytotoxic | able to reduce LTA production | decrease LTA production in a dose-dependent manner | 0.365 ± 0.0068 | more exothermic than that of 1771 | 4.06 ± 0.4 | 4.1 | 4 | – | –
2 | S=C(Nc1ccc(Cl)cc1)Nc1ccc(Sc2nc3ccccc3[nH]2)cc1 [Compound 9] | not cytotoxic | – | – | 0.283 | – | 117 | 117 | – | smearing effect | 4
